The text below walks through data of patent US5108996A, “19-nor-3-keto steroids” (Roussel Uclaf, priority 1989, dated 1992).

The subject of assay [1] is lipid peroxidation (MDA formation) in brain homogenates. Description: MDA formation triggered non-enzymatically by ferrous sulfate in rat brain homogenates (antioxidant activity). Type of assay: biochemical, S-D rat. The following applies: brain homogenate, 60 min 37° C. How it is done:
(§1) The antioxidant activity was tested in vitro by the test of formation of malondialdehyde (MDA) which measures lipid peroxidation triggered: either a) non-enzymatically by ferrous sulfate, in 1) brain homogenates, or 2) rat liver microsomes or b) enzymatically by NADPH and carbon tetrachloride in rat liver microsomes.
1.1-MDA formation was measured on 10-fold diluted (V/V) homogenates of brains of S-D (200 g), prepared in Krebs buffer pH 7.4 by the conditions described in J. Biol. Chem. Vol., 262 (1987), p. 10438 to 10440. 1 ml of homogenate was incubated for 60 minutes at 37° C. in the presence of 25 microliters of ethanol or water or a mixture of the two, depending on the product, containing or not containing the test product, after the addition of 25 microliters of ferrous sulfate solution prepared immediately before use in water outgassed with argon ([…]). 0.25 ml of incubated mixture was withdrawn and 1.5 ml of 1% strength phosphoric acid, 0.25 ml of a solution containing 200 microliters of deferoxamine (Desferal®, Ciba Geigy) in water, 10 microliters of butylated hydroxytoluene (BHT) at a concentration of 8.7 mg/ml in ethanol and 0.5 ml of thiobarbituric acid (TBA) at a concentration of 0.6% in water were added. The mixture was heated to 100° C. for 45 minutes and cooled. 4 ml of n-butanol were added and the mixture was centrifuged for 15 minutes at 4000 rpm and the OD of the supernatant fraction was then read at 535 nm. The reaction blanks in the absence of Fe^++ were incubated under the same conditions. The percentage inhibition was calculated as follows: […]

In assay [2] the test system is lipid peroxidation (MDA formation) in rat liver microsomes. Description: MDA formation triggered non-enzymatically by ferrous sulfate in rat liver microsomes (antioxidant activity). The following applies: 15 min 37° C. Type of assay: biochemical, S-D rat. How it is done:
as §1
1.2-MDA formation was measured on liver microsomes of S-D rats (200 g)
prepared from the fraction sedimented at 100,000 G of a liver homogenate
in a sucrose buffer, of which the fraction remaining insoluble at 100,000
G in 100 mM sodium pyrophosphate buffer pH 7.4 was used and which was
homogenized in 100 mM sodium phosphate buffer pH 7.4 containing 20% of
glycerol and then stored at -80° C.
The microsomes were incubated for 15 minutes at 37° C. in 1 ml containing 35 mM Tris-HCl buffer/0.1M KCl pH 7.4, 1 mg of microsomal protein, 5 microliters of ethanol containing or not containing the test product and 250 microliters of ascorbate solution in the Tris buffer (0.5 mM final), after the addition of 250 microliters of ferrous sulfate prepared immediately before use in the Tris buffer ([…]). The reaction was stopped by adding 2 ml of a 1M solution of trichloroacetic acid in 0.25M hydrochloric acid containing 0.4% of thiobarbituric acid. The mixture was heated to 85° C. for 25 minutes, cooled and centrifuged for 15 minutes at 3500 rpm, and the OD of the supernatant fraction was then read at 535 nm. The reaction blanks in the absence of Fe^++ were performed at the same time and the percentage inhibition was calculated as above.
On the technique in general: Liver microsomes are a subcellular fraction often used to study metabolism.

Assay [3] has the same test system. Description: MDA formation triggered enzymatically by NADPH and carbon tetrachloride in liver microsomes of phenobarbital-pretreated rats (antioxidant activity). It is filed as biochemical. The following applies: NADPH/CCl4. How it is done:
as §1
2-MDA formation was measured on liver microsomes of rats pretreated with phenobarbital (80 mg/kg in 3 i.p. injections), prepared as described above. The microsomes were incubated for 15 minutes at 37° C. in 1 ml containing 0.1M pH 7.4 phosphate buffer, 1 mg of microsomal protein, 5 microliters of ethanol containing or not containing the test product and 5 microliters of carbon tetrachloride (5.5 mM final) after the addition of 50 microliters of NADPH solution in the phosphate buffer (1 mM final). The reaction was stopped and the assay was then performed under the conditions described above.

The subject of assay [4] is ferric nitrilotriacetate (NTA-Fe+++) intoxication in rats. Description: Detoxifying activity in vivo: mortality induced in rats by ferric nitrilotriacetate (NTA-Fe+++) intoxication. To be noted: 5 mg/kg i.p. 30 minutes before 15 mg/kg of poison (NTA-Fe+++, mg of iron/kg); none alive after 4 hours with poison alone. The arrangement: species or system Wistar male rat. How it is done: The detoxifying activity after intoxication associated with lipid peroxidaton was tested for by measurement of the mortality induced in rats by ferric nitrilotriacetate (NTA-Fe^+++) intoxication. A solution of NTA-Fe^+++ complex was prepared immediately before use, suspended in sesame oil and injected intraperitoneally at doses of 5, 10 or 15 mg of iron/kg of body weight into non-fasted Wistar male rats weighing approximately 200 g. The survival rate of rats which received a prior injection of the test product at a dose of 5 mg/kg intraperitoneally, 30 minutes before the injection of 15 mg/kg of poison was determined. Whereas none of the animals treated with the poison alone survived after 4 hours, 20% of the animals pretreated with the product of Example 2 were still alive 15 days later.

In assay [5] the test system is arachidonic acid-induced plantar oedema. Nature of the assay: Arachidonic acid-induced plantar oedema (anti-inflammatory activity). To be noted: for Change in volume of the foot 1 hour after AA (mean ± s.e.m.): controls 0.58 ± 0.03; for % inhibition: oedema, relative to control. It is filed as in vivo, Sprague-Dawley male rat. How it is done:
The anti-inflammatory activity was assessed in vivo by measurement of the anti-oedematous activity in the test of arachidonic acid-induced plantar oedema described by Di Martino et al. (Agents and Actions, 1987 21 3/4 303). The experimental animals were Sprague-Dawley strain SPF male rats weighing 150 to 170 g (Iffa Credo).
This test was performed on groups of 8 male rats weighing 130 to 150 g, fasted for 16 hours. Arachidonic acid was injected under the plantar aponeurosis of one hindfoot at a dose of 0.2 mg in a volume of 0.1 ml. The volume of the foot was measured using a water plethysmometer before and 1 hour after the injection of arachidonic acid. The difference between these two volumes represented the degree of inflammation. The animals were treated with the test products or the vehicle alone at the same time as the injection of arachidonic acid. The test products were administered orally in a volume of 4 ml/kg after being suspended in 0.5% strength methyl cellulose. All the experiments were carried out with dexamethasone administered orally at a dose of 0.5 mg/kg as reference product.
The results were expressed as a change in volume of the foot 1 hour after the injection of arachidonic acid (AA) in the absence or in the presence of the test product administered at different doses. Statistical interpretation of the results was performed according to Dunnett's test (*p<[…]) or according to the Mann-Whitney test (^o p<0.05-^oo p<0.01). For each dose administered orally, the percentage inhibition of the oedema by the test product was calculated relative to the control.

In the case of `CN(C)c1ccc([C@H]2C[C@@]3(C)[C@@H](CC[C@@]3(O)C#CCN3CCN(c4cc(N5CCCC5)nc(N5CCCC5)n4)CC3)[C@@H]3CCC4=CC(=O)CCC4=C32)cc1` [Example 1, 11β-[4-(dimethylamino)-phenyl]-17α-[3-{4-[2,6-bis(1-pyrrolidinyl)-4-pyrimidinyl]-1-piperazinyl}-1-propynyl]-Δ^4,9-estradiene-17β-ol-3-one], the percentage of inhibition in assay [1] (1 × 10^-4 M) amounted to 42.6 ± 7.5; in assay [1] (1 × 10^-5 M) it was 9.9 ± 6.4; in assay [1] (5 × 10^-4 M) it was 47.5 ± 8.8; in assay [2] (1 × 10^-5 M), 76 ± 0.8; in assay [2] (1 × 10^-6 M), 4 ± 0.6; in assay [2] (5 × 10^-6 M), 47. The percentage of inhibition in assay [3] (1 × 10^-5 M) is recorded as 72 ± 3; in assay [3] (1 × 10^-6 M) it was 14 ± 4; in assay [3] (5 × 10^-6 M), 58 ± 5.

As to `CN(C)c1ccc([C@H]2C[C@@]3(C)[C@@H](CC[C@@]3(O)C#CCN3CCN(c4cc(N5CCCC5)nc(N5CCCC5)n4)CC3)[C@@H]3CCC4=CC(=O)CCC4=C32)cc1` [Example 2, 11β-[4-(dimethylamino)-phenyl]-17α-[3-{4-[2,6-bis(1-pyrrolidinyl)-4-pyrimidinyl]-1-piperazinyl}-1-propynyl]-Δ^4,9-estradien-17β-ol-3-one methane sulfonate], the percentage of inhibition came out at 59.6 ± 4.4 in assay [1] (1 × 10^-4 M); 16.0 ± 5.0 in assay [1] (1 × 10^-5 M); 60.9 ± 3.3 in assay [1] (5 × 10^-4 M); 98.5 in assay [2] (1 × 10^-5 M); 48 ± 1 in assay [2] (1 × 10^-6 M); 91 in assay [2] (5 × 10^-6 M). The percentage of inhibition in assay [3] (1 × 10^-5 M) is recorded as 91 ± 3; in assay [3] (1 × 10^-6 M), 28 ± 3; in assay [3] (5 × 10^-6 M), 82 ± 3. For the same molecule, the “animals still alive 15 days later (survival rate)” value in assay [4] is 20%.

`CCN(CC)c1ccc(N2CCN(CC#C[C@]3(O)CC[C@H]4[C@@H]5CCC6=CC(=O)CCC6=C5[C@@H](c5ccc(N(C)C)cc5)C[C@@]43C)CC2)nc1N(CC)CC` [Example 3, 11β-[4-(dimethylamino)-phenyl]-17α-[3-{4-[5,6-bis(diethylamino)-2-pyridyl]-1-piperazinyl}1-propynyl]-Δ^4,9-estradiene-17β-ol-3-one]: the percentage of inhibition in assay [1] (1 × 10^-4 M) is 49.2 ± 2.3; in assay [1] (1 × 10^-5 M), 32.6 ± 10.1; in assay [1] (5 × 10^-4 M), 59.1 ± 3.2; in assay [2] (1 × 10^-5 M) it was 99.9; in assay [2] (1 × 10^-6 M), 78.2 ± 0.9; in assay [2] (1 × 10^-7 M) it was 5.2 ± 1. Further, the percentage of inhibition in assay [2] (5 × 10^-6 M) was 99.5; in assay [3] (1 × 10^-5 M), 97; in assay [3] (1 × 10^-6 M) it was 40 ± 1; in assay [3] (5 × 10^-6 M), 88 ± 2. The “Change in volume of the foot 1 hour after AA (mean ± s.e.m.)” value in assay [5] (1 mg/kg oral) came to 0.48 ± 0.05 cm^3; in assay [5] (4 mg/kg oral), 0.43 ± 0.06 cm^3; in assay [5] (20 mg/kg oral), 0.40 ± 0.04 cm^3. Further, in assay [5] (low doses, oral), the anti-inflammatory activity entry is “significant anti-inflammatory activity”. The “% inhibition” value is -17% in assay [5] (1 mg/kg oral), -27% in assay [5] (4 mg/kg oral) and -31% in assay [5] (20 mg/kg oral).

On to `CCN(CC)c1ccc(N(CC)CC)c(N2CCN(CC#C[C@]3(O)CC[C@H]4[C@@H]5CCC6=CC(=O)CCC6=C5[C@@H](c5ccc(N(C)C)cc5)C[C@@]43C)CC2)n1` [Example 4, 17α-[3-{4-[3,6-bis(diethylamino)-2-pyridyl]-1]-piperazinyl}-1-propynyl]-11β-[4-(dimethylamino)-phenyl-Δ^4,9-estadiene-17β-ol-3-one], for which the percentage of inhibition in assay [1] (1 × 10^-4 M) was determined as 58.9 ± 10.9; in assay [1] (1 × 10^-5 M) it was 48.6 ± 6.2; in assay [1] (5 × 10^-4 M) it was 71.8 ± 10.2; in assay [2] (1 × 10^-5 M), 99.5; in assay [2] (1 × 10^-6 M) it was 70 ± 2; in assay [2] (1 × 10^-7 M), 0 ± 2. Besides, the percentage of inhibition in assay [2] (5 × 10^-6 M) came out at 99.4; in assay [3] (1 × 10^-6 M), 48 ± 3; in assay [3] (5 × 10^-6 M) it was 85 ± 2.

As usually defined, the % inhibition is the drop in the measured response relative to a control, in per cent.
